Data from ChEMBL document CHEMBL1139487, “Discovery of corticotropin releasing factor 2 receptor selective sauvagine analogues for treatment of skeletal muscle atrophy” (J Med Chem, 2005).

Columns and labels:
[1] = biological target: T1, Corticotropin-releasing factor receptor 1 (Mus musculus, UniProt P35347); assay: In vitro effective concentration for mouse corticotropin releasing factor 1 receptor
T1 sequence (P35347 whole entry): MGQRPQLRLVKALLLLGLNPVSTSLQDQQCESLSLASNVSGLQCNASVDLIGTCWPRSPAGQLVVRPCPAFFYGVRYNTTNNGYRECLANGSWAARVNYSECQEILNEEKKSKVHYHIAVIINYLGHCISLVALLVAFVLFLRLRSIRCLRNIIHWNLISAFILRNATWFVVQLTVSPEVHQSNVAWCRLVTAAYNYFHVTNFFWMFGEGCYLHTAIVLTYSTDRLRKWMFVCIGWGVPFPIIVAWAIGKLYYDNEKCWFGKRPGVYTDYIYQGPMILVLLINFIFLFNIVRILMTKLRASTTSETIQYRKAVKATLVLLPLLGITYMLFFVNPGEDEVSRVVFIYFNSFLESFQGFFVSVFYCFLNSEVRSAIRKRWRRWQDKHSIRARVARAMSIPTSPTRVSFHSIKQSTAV

[2] = biological target: Corticotropin-releasing factor receptor 2 (Mus musculus, UniProt Q60748); assay: In vitro effective concentration for mouse corticotropin releasing factor 2 receptor
Chain of Corticotropin-releasing factor receptor 2 (Q60748 whole entry): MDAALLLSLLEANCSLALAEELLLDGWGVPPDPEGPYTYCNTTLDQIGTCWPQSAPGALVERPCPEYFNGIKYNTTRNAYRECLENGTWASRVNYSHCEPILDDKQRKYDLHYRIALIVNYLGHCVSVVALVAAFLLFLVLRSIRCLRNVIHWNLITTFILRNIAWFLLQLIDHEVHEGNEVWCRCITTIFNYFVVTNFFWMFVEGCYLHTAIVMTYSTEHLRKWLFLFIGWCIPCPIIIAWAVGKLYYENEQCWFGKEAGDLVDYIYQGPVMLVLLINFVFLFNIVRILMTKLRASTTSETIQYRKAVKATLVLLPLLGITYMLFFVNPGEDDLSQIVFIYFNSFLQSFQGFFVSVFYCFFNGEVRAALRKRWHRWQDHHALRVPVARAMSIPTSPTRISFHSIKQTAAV

SMILES	EC50 [1]	EC50 [2]
CC[C@H](C)[C@H](NC(=O)[C@@H](NC(=O)[C@H](CC(=O)O)NC(=O)[C@H](CC(C)C)NC(=O)[C@H](CC(C)C)NC(=O)[C@H](CC(C)C)NC(=O)[C@H](CCCNC(=N)N)NC(=O)[C@H](CC(N)=O)NC(=O)[C@H](CC(N)=O)NC(=O)[C@H](C)NC(=O)[C@H](C)NC(=O)[C@H](CCC(N)=O)NC(=O)[C@H](CCC(N)=O)NC(=O)[C@H](CCCCN)NC(=O)[C@H](CCC(=O)O)NC(=O)[C@H](CCCCN)NC(=O)[C@H](CCC(=O)O)NC(=O)[C@H](CCC(N)=O)NC(=O)[C@H](CCCCN)NC(=O)[C@H](CCC(=O)O)NC(=O)[C@@H](NC(=O)[C@H](CCC(=O)O)NC(=O)[C@@H](NC(=O)[C@H](CCSC)NC(=O)[C@H](CCCCN)NC(=O)[C@H](CCCNC(=N)N)NC(=O)[C@H](CC(C)C)NC(=O)[C@H](CC(C)C)NC(=O)[C@H](CCC(N)=O)NC(=O)[C@H](Cc1ccc(O)cc1)NC(=O)[C@@H]1CCCN1C(=O)[C@H](CC(C)C)NC(=O)[C@H](CC(=O)O)NC(=O)[C@@H](NC(=O)[C@H](CO)NC(=O)[C@@H](NC(=O)[C@@H]1CCCN1C(=O)[C@@H]1CCCN1C(=O)CNC(=O)[C@@H]1CCC(=O)N1)[C@@H](C)CC)[C@@H](C)CC)[C@@H](C)CC)[C@@H](C)CC)[C@@H](C)O)C(=O)O	404 nM	8.6 nM
CC[C@H](C)[C@H](NC(=O)[C@@H](NC(=O)[C@H](CC(=O)O)NC(=O)[C@H](CC(C)C)NC(=O)[C@H](CC(C)C)NC(=O)[C@H](CC(C)C)NC(=O)[C@H](CCCNC(=N)N)NC(=O)[C@H](CC(N)=O)NC(=O)[C@H](CC(N)=O)NC(=O)[C@H](C)NC(=O)[C@H](C)NC(=O)[C@H](CCC(N)=O)NC(=O)[C@H](CCC(N)=O)NC(=O)[C@H](CCCCN)NC(=O)[C@H](CCC(=O)O)NC(=O)[C@H](CCCCN)NC(=O)[C@H](CCC(=O)O)NC(=O)[C@H](CCC(N)=O)NC(=O)[C@H](CCCCN)NC(=O)[C@H](CCC(=O)O)NC(=O)[C@@H](NC(=O)[C@H](CCC(=O)O)NC(=O)[C@@H](NC(=O)[C@H](CCSC)NC(=O)[C@H](CCCCN)NC(=O)[C@H](CCCNC(=N)N)NC(=O)[C@H](CC(C)C)NC(=O)[C@H](CC(C)C)NC(=O)[C@@H](NC(=O)[C@H](CCC(N)=O)NC(=O)[C@@H]1CCCN1C(=O)[C@H](CC(C)C)NC(=O)[C@H](CC(=O)O)NC(=O)[C@@H](NC(=O)[C@H](CO)NC(=O)[C@@H](NC(=O)[C@@H]1CCCN1C(=O)[C@@H]1CCCN1C(=O)CNC(=O)[C@@H]1CCC(=O)N1)[C@@H](C)CC)[C@@H](C)CC)[C@@H](C)CC)[C@@H](C)CC)[C@@H](C)CC)[C@@H](C)O)C(=O)O	707 nM	8.5 nM
CC[C@H](C)[C@H](NC(=O)[C@@H](NC(=O)[C@H](CC(=O)O)NC(=O)[C@H](CC(C)C)NC(=O)[C@H](CC(C)C)NC(=O)[C@H](CC(C)C)NC(=O)[C@H](CCCNC(=N)N)NC(=O)[C@H](CC(N)=O)NC(=O)[C@H](CC(N)=O)NC(=O)[C@H](C)NC(=O)[C@H](C)NC(=O)[C@H](CCC(N)=O)NC(=O)[C@H](CCC(N)=O)NC(=O)[C@H](CCCCN)NC(=O)[C@H](CCC(=O)O)NC(=O)[C@H](CCCCN)NC(=O)[C@H](CCC(=O)O)NC(=O)[C@H](CCC(N)=O)NC(=O)[C@H](CCCCN)NC(=O)[C@H](CCC(=O)O)NC(=O)[C@@H](NC(=O)[C@H](CCC(=O)O)NC(=O)[C@@H](NC(=O)[C@H](CCSC)NC(=O)[C@H](CCCCN)NC(=O)[C@H](CCCNC(=N)N)NC(=O)[C@H](CC(C)C)NC(=O)[C@H](CC(C)C)NC(=O)[C@H](CCC(N)=O)NC(=O)[C@H](Cc1ccccc1)NC(=O)[C@@H]1CCCN1C(=O)[C@H](CC(C)C)NC(=O)[C@H](CC(=O)O)NC(=O)[C@@H](NC(=O)[C@H](CO)NC(=O)[C@@H](NC(=O)[C@@H]1CCCN1C(=O)[C@@H]1CCCN1C(=O)CNC(=O)[C@@H]1CCC(=O)N1)[C@@H](C)CC)[C@@H](C)CC)[C@@H](C)CC)[C@@H](C)CC)[C@@H](C)O)C(=O)O	112 nM	1.8 nM
CC[C@H](C)[C@H](NC(=O)[C@@H](NC(=O)[C@H](CC(=O)O)NC(=O)[C@H](CC(C)C)NC(=O)[C@H](CC(C)C)NC(=O)[C@H](CC(C)C)NC(=O)[C@H](CCCNC(=N)N)NC(=O)[C@H](CC(N)=O)NC(=O)[C@H](CC(N)=O)NC(=O)[C@H](C)NC(=O)[C@H](C)NC(=O)[C@H](CCC(N)=O)NC(=O)[C@H](CCC(N)=O)NC(=O)[C@H](CCCCN)NC(=O)[C@H](CCC(=O)O)NC(=O)[C@H](CCCCN)NC(=O)[C@H](CCC(=O)O)NC(=O)[C@H](CCC(N)=O)NC(=O)[C@H](CCCCN)NC(=O)[C@H](CCC(=O)O)NC(=O)[C@@H](NC(=O)[C@H](CCC(=O)O)NC(=O)[C@@H](NC(=O)[C@H](CCSC)NC(=O)[C@H](CCCCN)NC(=O)[C@H](CCCNC(=N)N)NC(=O)[C@H](CC(C)C)NC(=O)[C@H](CC(C)C)NC(=O)[C@H](CC(C)C)NC(=O)[C@H](CC(C)C)NC(=O)[C@@H]1CCCN1C(=O)[C@H](CC(C)C)NC(=O)[C@H](CC(=O)O)NC(=O)[C@@H](NC(=O)[C@H](CO)NC(=O)[C@@H](NC(=O)[C@@H]1CCCN1C(=O)[C@@H]1CCCN1C(=O)CNC(=O)[C@@H]1CCC(=O)N1)[C@@H](C)CC)[C@@H](C)CC)[C@@H](C)CC)[C@@H](C)CC)[C@@H](C)O)C(=O)O	162 nM	7.4 nM

Stronger by EC50 [1], values ahead:

EC50 [1]	EC50 [2]	SMILES
76.2 nM	5.2 nM	CC[C@H](C)[C@H](NC(=O)[C@@H](NC(=O)[C@H](CC(=O)O)NC(=O)[C@H](CC(C)C)NC(=O)[C@H](CC(C)C)NC(=O)[C@H](CC(C)C)NC(=O)[C@H](CCCNC(=N)N)NC(=O)[C@H](CC(N)=O)NC(=O)[C@H](CC(N)=O)NC(=O)[C@H](C)NC(=O)[C@H](C)NC(=O)[C@H](CCC(N)=O)NC(=O)[C@H](CCC(N)=O)NC(=O)[C@H](CCCCN)NC(=O)[C@H](CCC(=O)O)NC(=O)[C@H](CCCCN)NC(=O)[C@H](CCC(=O)O)NC(=O)[C@H](CCC(N)=O)NC(=O)[C@H](CCCCN)NC(=O)[C@H](CCC(=O)O)NC(=O)[C@@H](NC(=O)[C@H](CCC(=O)O)NC(=O)[C@@H](NC(=O)[C@H](CCSC)NC(=O)[C@H](CCCCN)NC(=O)[C@H](CCCNC(=N)N)NC(=O)[C@H](CC(C)C)NC(=O)[C@H](CC(C)C)NC(=O)[C@H](CC(C)C)NC(=O)[C@H](Cc1ccc(O)cc1)NC(=O)[C@@H]1CCCN1C(=O)[C@H](CC(C)C)NC(=O)[C@H](CC(=O)O)NC(=O)[C@@H](NC(=O)[C@H](CO)NC(=O)[C@@H](NC(=O)[C@@H]1CCCN1C(=O)[C@@H]1CCCN1C(=O)CNC(=O)[C@@H]1CCC(=O)N1)[C@@H](C)CC)[C@@H](C)CC)[C@@H](C)CC)[C@@H](C)CC)[C@@H](C)O)C(=O)O
102 nM	7 nM	CC[C@H](C)[C@H](NC(=O)[C@@H](NC(=O)[C@H](CC(=O)O)NC(=O)[C@H](CC(C)C)NC(=O)[C@H](CC(C)C)NC(=O)[C@H](CC(C)C)NC(=O)[C@H](CCCNC(=N)N)NC(=O)[C@H](CC(N)=O)NC(=O)[C@H](CC(N)=O)NC(=O)[C@H](C)NC(=O)[C@H](C)NC(=O)[C@H](CCC(N)=O)NC(=O)[C@H](CCC(N)=O)NC(=O)[C@H](CCCCN)NC(=O)[C@H](CCC(=O)O)NC(=O)[C@H](CCCCN)NC(=O)[C@H](CCC(=O)O)NC(=O)[C@H](CCC(N)=O)NC(=O)[C@H](CCCCN)NC(=O)[C@H](CCC(=O)O)NC(=O)[C@@H](NC(=O)[C@H](CCC(=O)O)NC(=O)[C@@H](NC(=O)[C@H](CCSC)NC(=O)[C@H](CCCCN)NC(=O)[C@H](CCCNC(=N)N)NC(=O)[C@H](CC(C)C)NC(=O)[C@H](CC(C)C)NC(=O)[C@H](Cc1ccc(O)cc1)NC(=O)[C@H](Cc1ccc(O)cc1)NC(=O)[C@@H]1CCCN1C(=O)[C@H](CC(C)C)NC(=O)[C@H](CC(=O)O)NC(=O)[C@@H](NC(=O)[C@H](CO)NC(=O)[C@@H](NC(=O)[C@@H]1CCCN1C(=O)[C@@H]1CCCN1C(=O)CNC(=O)[C@@H]1CCC(=O)N1)[C@@H](C)CC)[C@@H](C)CC)[C@@H](C)CC)[C@@H](C)CC)[C@@H](C)O)C(=O)O
